{"source": "patent US8148347B2", "about": "“Inhibition of interaction of PSD93 and PSDS95 with nNOS and NMDA receptors” (The Johns Hopkins University, priority 2000, dated 2012)", "assay_type_in_all_cases": "in vivo, rat", "key": {"[1]": {"tested_on": "Male Sprague-Dawley rats", "assay": "radiant heat tail-flick test, baseline and NMDA-induced thermal hyperalgesia", "from_the_text": "To examine whether PSD-95/SAP90 was required for thermal hyperalgesia triggered through NMDA receptor activation, we made an antisense oligonucletide (OND) corresponding to the PDZ domain nucleotides 241 to 258 (5′-[…]-3′; SEQ ID NO: 1) of rat PSD-95/SAP90 mRNA, as well as the sense OND and missense OND (5′-[…]-3′; SEQ ID NO: 2). All of the ONDs were compared to the Gene Bank database (GenBank accession number M96853) and found not to be complementary to any registered nucleotide sequences. The effects of antisense, sense and missense ONDs on baseline and NMDA-induced tail-flick latencies were assessed. […] To identify that NMDA-induced thermal hyperalgesia was produced specifically through NMDA receptor activation but not non-NMDA receptor activation, we observed the effects of a selective NMDA receptor antagonist, MK-801, and a selective non-NMDA receptor antagonist, DNQX, on NMDA-induced facilitation of the tail-flick reflex. […] In addition, motor weakness or dysfunction was not observed in locomotor tests (including placing reflex, grasping reflex and righting reflex) in any of the treated animals including the antisense groups (data not shown).\nAnimal preparation and behavioral testing. All experiments were carried out with the approval of the Animal Care Committee at the Johns Hopkins University and were consistent with the ethical guidelines of the National Institutes of Health and the International Association for the Study of Pain. Male Sprague-Dawley rats (250-300 g) were implanted with an intrathecal PE-10 catheter into the subarachnoid space at the rostral level of the spinal cord lumbar enlargement through an incision at the atlanto-occipital membrane according to the method as described.^25,27 One week or more later, the rats were injected intrathecally with saline or ONDs every 24 h for 4 days. On the fifth day, saline, NMDA, MK-801+NMDA or DNQX+NMDA was given intrathecally. Nociception was evaluated by the radiant heat tail-flick test. The doses and time point of maximal effect of NMDA used in the present study were determined based on a previous study.^24 The tail-flick apparatus (Model 33B Tail Flick Analgesy Meter, IITC Life Science, Woodland Hills, Calif., USA) generated a beam of radiant heat that was focused on the underside of the tail, 5 cm from the tip. A cut-off time latency of 13.5 s was used to avoid tissue damage to the tail. Nociception was assessed by the time required to induce tail-flick after applying radiant heat to the skin of the tail. The latency of reflexive removal of the tail from the heat was measured automatically to the nearest 0.01 s. Tail-flick latency was measured five times, and the basal latency was defined as the mean. Tail-flick data were expressed as percentage change calculated by the formula: (trial latency−baseline latency)/(baseline latency)×100%. Finally, PE-10 catheter position from each animal was confirmed when lumbar enlargement segments were removed for western blot analysis. PCR analysis of PSD-95/SAP90 in rat spinal cord. The cDNA sequences encoding portions of the PSD-95/SAP90 were amplified using the following synthetic OND primers: PSD1 (5′-[…]-3′; SEQ ID NO: 3) and PSD2 (5′-[…]-3′; SEQ ID NO: 4) for amplification of PSD-95/SAP90 codon positions 789-1525. RNA samples (1 μg) from rat spinal cord, brain and muscle were reverse transcribed to generate first-strand cDNA. The PCR reactions were performed for 25 cycles. Each cycle included 30 s at 94° C., 30 s at 55° C., and 30 s at 71° C. The PCR products were directly cloned into the TA cloning vector (Invitrogen Co., San Diego, Calif., USA) and verified by automatic DNA sequencing. Fusion protein construction and preparation. cDNA sequence encoding portion of PSD-95/SAP90 was amplified by PCR and subcloned in-frame into PGEX-2T (GIBCO, Rockville, Md., USA) via the BamHI and EcoRI restriction digest sites. […]"}, "[2]": {"tested_on": "Male Sprague-Dawley rats", "assay": "tests of locomotor function (placing, grasping, righting reflex) and general behaviors", "settings": "saline pretreatment + 1.25 μg NMDA intrathecal; five trials, mean (SD)", "method": "The effects of ODNs on locomotor function were examined using the following methods.^52 The animals were organized randomly into six groups: control (saline); 12.5 antisense ODN; 25 μg antisense ODN; 50 μg antisense ODN; 50 μg sense ODN; 50 μg missense ODN. The rats were pretreated with ODNs or saline in the manner described above. On the fifth day, 10 μl of saline was injected intrathecally for each rat. In some saline or antisense ODN (50 μg)-treated rats, fresh NMDA solution (1.25 μg/10 μl) was injected intrathecally. The following tests were performed with the experimenter blind to which group was treated with the agents: (1) Placing reflex: The rat was held with the hind limbs slightly lower than the forelimbs, and the dorsal surfaces of the hind paws were brought into contact with the edge of a table. The experimenter recorded whether the hind paws were placed on the table surface reflexively; (2) Grasping reflex: The rat was placed on a wire grid and the experimenter recorded whether the hind paws grasped the wire on contact; (3) Righting reflex: The rat was placed on its back on a flat surface and the experimenter noted whether it immediately assumed the normal upright position. […] In addition, the rat general behaviors including spontaneous activity were observed."}, "[3]": {"tested_on": "Male Sprague-Dawley rats", "assay": "measurement of isoflurane MAC (tail clamp)", "settings": "saline-treated group, intrathecal NMDA 1.25 μg", "method": "The ODNs were dissolved in saline before administration. As described in the previous work,^49 the rats were injected intrathecally with saline (10 μl) (control), antisense ODNs (12.5, 25, 50 μg/10 μl), sense ODN (50 μg/10 μl) and missense ODN (50 μg/10 μl), respectively, followed by an injection of 10 μl of saline to flush the catheter, every 24 h for 4 days.\n(§1) On the fifth day after saline or ODNs injection, each rat was placed in a clear plastic cone and anesthetized with 5% isoflurane in oxygen for three to five minutes. After tracheostomy, the trachea of each animal was intubated with a 16-gauge polyethylene catheter. The inspired isoflurane concentration was reduced to 2%, and the animals breathed spontaneously until cannulation of a carotid artery and a jugular vein with PE-50 tubing was accomplished. The isoflurane concentration was decreased further to 1.5%, and ventilation was controlled by a Harvard Animal Respirator (Harvard Apparatus, South Natick, Mass.) adjusted according to the measurement of arterial blood gases to maintain normal partial pressure of oxygen (PO2=91-94 mmHg), partial pressure of carbon dioxide (PCO2=33-41 mmHg) and pH (7.4-7.44). Electrocardiography and systolic and diastolic blood pressure were monitored using a Grass Polygraph (Astroumed Grass, Quincy, Mass.) and Gould Pressure Transducer (Gould, Cleveland, Ohio). Rectal temperature was maintained between 36.5 and 37.5° C. by use of a heating blanket and warming lights.\nA PE-10 catheter was introduced through and beyond the endotracheal tube until obstruction to passage was met and then withdrawn 1 to 2 mm. For isoflurane MAC measurement, the PE-10 catheter was connected to a parameter airway gas monitor (Datex-Engstrom, Inc., Tewksbury, Mass.). After stabilizing about 30 minutes, MAC was measured according to the methods described previously^34 using a long hemostat (8-inch Rochester Dean Hemostatic Forceps) clamped to the first ratchet lock on the tail for 1 min. The tail was always stimulated proximal to a previous test site. Gross movement of the head, extremities, or body was taken as a positive test result, whereas grimacing, swallowing, chewing, or tail flick were considered negative results. The isoflurane concentration was reduced in decrements of 0.12 to 0.15% until the negative response became positive, with 12-15 min equilibration allowed after changes in concentration.^50,51 The MAC was considered to be the concentration midway between the highest concentration that permitted movement in response to the stimulus and the lowest concentration that prevented movement. Finally, intrathecal PE-10 catheter position from each animal was confirmed.\n(§2) In some saline-treated rats, after initial baseline MAC determination, NMDA at the dose of 1.25 μg^38 or saline was injected intrathecally in a volume of 10 μl saline, followed by an injection of 10 μl saline to flush the catheter. Fresh NMDA solution was prepared for each experiment. […] At this isoflurane concentration, 10 min after the intrathecal injection of NMDA, the animals were tested again for reactivity to tail clamp. The concentration of isoflurane was increased, and response to tail clamp was checked every 12-15 min thereafter until a negative response was achieved. In some antisense ODN (50 μg)-treated rats, after initial MAC determination, NMDA or saline was also administered intrathecally. The MAC for isoflurane was again determined following the aforementioned procedures."}, "[4]": {"tested_on": "Male Sprague-Dawley rats", "assay": "blood pressure and heart rate during isoflurane anesthesia", "settings": "saline-treated group, intrathecal NMDA 1.25 μg", "from_the_text": "as §1, §2"}}}
{"smiles": "CN[C@H](CC(=O)O)C(=O)O", "note": "[NMDA, N-methyl-D-aspartate]", "values": [{"measurement": "ΔTF latency (%)", "setting": "[1]; NMDA alone, intrathecal 10 nM/10 μl", "result": "−25.84", "unit": "%"}, {"measurement": "facilitation of the tail-flick reflex", "setting": "[1]; intrathecal NMDA 5 nM/10 μl (data not shown)", "result": "induced a facilitation of the tail-flick reflex"}, {"measurement": "tail-flick latency after NMDA", "setting": "[1]; intrathecal NMDA 10 nM/10 μl, baseline 6.58±0.57", "result": "4.88 ± 0.41", "unit": "s"}, {"measurement": "Grasping", "setting": "[2]", "result": "5 (0)"}, {"measurement": "Placing", "setting": "[2]", "result": "5 (0)"}, {"measurement": "Righting", "setting": "[2]", "result": "5 (0)"}, {"measurement": "increase from isoflurane control MAC", "setting": "[3]", "result": 15, "unit": "%"}, {"measurement": "Heart rate", "setting": "[4]", "result": "529.20±55.20", "unit": "beats/min"}, {"measurement": "diastolic blood pressure", "setting": "[4]", "result": "118.30±7.81", "unit": "mmHg"}, {"measurement": "systolic blood pressure", "setting": "[4]", "result": "135.70±3.38", "unit": "mmHg"}]}
{"smiles": "O=[N+]([O-])c1cc2nc(O)c(O)nc2cc1[N+](=O)[O-]", "note": "[DNQX]", "values": [{"measurement": "facilitation of the tail-flick reflex stimulated by NMDA", "setting": "[1]; intrathecal DNQX 20 nM/10 μl", "result": "had no effect"}, {"measurement": "ΔTF latency (%)", "setting": "[1]; intrathecal DNQX 20 nM/10 μl + NMDA", "result": "−22.6", "unit": "%"}]}
{"smiles": "C[C@]12N[C@H](Cc3ccccc31)c1ccccc12", "note": "[MK-801]", "values": [{"measurement": "facilitation of the tail-flick reflex stimulated by NMDA", "setting": "[1]; intrathecal MK-801 10 nM/10 μl", "result": "completely abolished"}, {"measurement": "ΔTF latency (%)", "setting": "[1]; intrathecal MK-801 10 nM/10 μl + NMDA", "result": 0.9, "unit": "%"}]}
